Our source for the IC50 values is patent US8921358B2, “Apoptosis signal-regulating kinase 1 inhibitors” (Takeda Pharmaceutical Company Limited, priority 2008, dated 2014).

pIC50: −log10 of the molar value.

Broadly, the pIC50 is the negative decadic logarithm of the IC50, by convention in mol/L.

This assay addresses T1, human ASK1 (Homo sapiens, UniProt Q99683).
T1 construct: a 2.2 kb DNA fragment containing an ASK1 gene was recovered from the gel; made in house; host or cells: Sf-21 insect cells, recombinant baculovirus (pFASTBAC1, Bac-to-Bac)
T1 sequence (Q99683 649-1374 limits assumed): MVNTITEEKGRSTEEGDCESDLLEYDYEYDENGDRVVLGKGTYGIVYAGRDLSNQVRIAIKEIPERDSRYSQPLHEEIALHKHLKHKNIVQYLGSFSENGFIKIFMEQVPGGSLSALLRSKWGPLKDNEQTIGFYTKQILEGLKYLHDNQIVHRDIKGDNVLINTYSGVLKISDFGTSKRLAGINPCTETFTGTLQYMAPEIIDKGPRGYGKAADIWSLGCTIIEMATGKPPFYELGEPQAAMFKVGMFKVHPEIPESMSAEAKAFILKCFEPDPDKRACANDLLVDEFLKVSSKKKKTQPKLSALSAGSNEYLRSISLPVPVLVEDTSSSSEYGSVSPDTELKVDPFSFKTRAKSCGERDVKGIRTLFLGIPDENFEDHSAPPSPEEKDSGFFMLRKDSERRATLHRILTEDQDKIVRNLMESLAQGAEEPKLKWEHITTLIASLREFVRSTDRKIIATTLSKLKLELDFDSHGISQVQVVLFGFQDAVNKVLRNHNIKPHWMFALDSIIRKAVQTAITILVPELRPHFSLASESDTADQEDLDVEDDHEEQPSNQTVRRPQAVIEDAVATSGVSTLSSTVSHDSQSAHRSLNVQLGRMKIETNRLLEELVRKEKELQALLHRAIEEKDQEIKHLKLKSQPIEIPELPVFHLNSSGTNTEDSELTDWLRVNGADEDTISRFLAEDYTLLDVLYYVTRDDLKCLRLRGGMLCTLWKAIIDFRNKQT
Description: Scintillation assay measuring inhibition of ASK1 phosphorylation of myelin basic protein. It counts as biochemical. Conditions: active ASK1 protein 30 ng, myelin basic protein 1 μg, [γ-32P]ATP, room temperature 30 min; values given as ranges; read-out: Enzyme Activity IC50.

`CC(C)(O)c1ccc(C(=O)Nc2cc(NC3CC3)n3nccc3n2)cc1` [Compound 88, N-(7-(cyclopropylamino)pyrazolo[1,5-a]pyrimidin-5-yl)-4-(2-hydroxypropan-2-yl)benzamide]: the pIC50 is 6.00 to 7.00.
With `Cc1cc2nc(NC(=O)c3ccc(C(C)(C)CO)cc3)cc(N3CCC[C@H]3CO)n2n1` [Compound 95, (S)-4-(1-hydroxy-2-methylpropan-2-yl)-N-(7-(2-(hydroxymethyl)pyrrolidin-1-yl)-2-methylpyrazolo[1,5-a]pyrimidin-5-yl)benzamide] the figure was 6.00 to 7.00.
